Measured values as given in article PMC8236452, “Pharmacokinetics and safety of rucaparib in patients with advanced solid tumors and hepatic impairment” (Cancer Chemotherapy and Pharmacology, 2021).

Experiment: Plasma pharmacokinetics after a single oral dose of rucaparib 600 mg in patients with advanced solid tumors, by hepatic function group
Details: for AUC(0-inf) / AUC(0-t) / Cmax / Vd/F / half-life / Tmax: human, plasma, po, 600 mg, single oral rucaparib 600 mg; for AUC(0-inf): AUC0–inf; for AUC(0-t): AUC0–last; for Vd/F: Vz/F
[1] = Median (min–max), Child–Pugh severe hepatic impairment
[2] = Median (min–max), NCI-ODWG moderate hepatic impairment
[3] = Median (min–max), NCI-ODWG normal hepatic function
[4] = GM, Child–Pugh mild hepatic impairment
[5] = GM, Child–Pugh moderate hepatic impairment
[6] = GM, Child–Pugh severe hepatic impairment
[7] = GM, NCI-ODWG moderate hepatic impairment
[8] = GM, NCI-ODWG normal hepatic function
[9] = Mean (SD), Child–Pugh mild hepatic impairment
[10] = Mean (SD), Child–Pugh moderate hepatic impairment
[11] = Mean (SD), Child–Pugh severe hepatic impairment
[12] = Mean (SD), NCI-ODWG moderate hepatic impairment
[13] = Mean (SD), NCI-ODWG normal hepatic function
[14] = Median (min–max), Child–Pugh mild hepatic impairment
[15] = Median (min–max), Child–Pugh moderate hepatic impairment
[16] = linear regression of log-transformed PK parameter on hepatic function parameter (NCI-ODWG)

Protocol: In Part 1, patients received a single oral dose of rucaparib 600 mg on day 1; PK samples were collected and safety monitored through day 7.
Sample collection, processing, and shipping were conducted according to standardized protocols shared across study sites. Plasma samples were collected for PK analysis at the predose assessment and at 1, 2, 3, 4, 8, 12, 24, 48, 72, 96, 120, and 144 h postdose. A predose urine sample was collected less than 12 h prior to study drug administration. Total urine was collected 0–12 h and 12–24 h postdose. Total (bound and unbound) concentrations of rucaparib and its metabolite M324 in plasma and urine samples were determined by Q Squared Solutions BioSciences (Ithaca, NY, USA) using validated liquid chromatography mass spectrometry/mass spectrometry methods. Stable deuterium-labeled analytes were used as internal standards. The assay calibration ranges for plasma samples were 5–10,000 ng/mL for rucaparib and 1–1000 ng/mL for M324 with lower limits of quantification (LLOQ) of 5.00 and 1.00 ng/mL, respectively. For urine samples, the calibration range was 500–50,000 ng/mL for both rucaparib and M324, with a LLOQ of 500 ng/mL for both analytes. The precision was within 9.3% CV, and the accuracy was within ± 6.2%.
PK parameters were estimated from the concentration–time profiles. Actual elapsed time after dosing was used to estimate plasma PK parameters based on noncompartmental methods using Phoenix® WinNonlin® version 8.1.0 (Certara USA, Inc., Princeton, NJ, USA). […] Exploratory PK parameters for M324 calculated based on plasma and urine concentration-time data were Cmax, AUC0–last, AUC0–inf, t1/2, tmax, Ae0–24, and CLR, as data allowed.
PK parameters were calculated by noncompartmental analysis, analyzed using descriptive statistics, and presented by hepatic functional status. Analysis of variance (ANOVA) was used to compare PK parameters (e.g., Cmax, AUC0–last, and AUC0–inf) between the normal hepatic function group and the moderate hepatic impairment group per NCI-ODWG criteria. PK values were log-transformed before analysis. Baseline covariates (e.g., creatinine clearance [CLcr], sex, age, BMI, and ECOG PS) were tested for any significant effect (P value < 0.05). Geometric least-squares means were used to calculate the ratios of the PK parameters in the hepatic impairment group to those in the control group, along with 90% confidence intervals (CIs). The Wilcoxon rank-sum test was used to compare tmax values between the two groups, and estimates of the median differences were determined, along with 90% CIs. In addition, the relationships between log-transformed PK parameters (AUC0–last, AUC0–inf, Cmax) for rucaparib and M324 and hepatic function parameters (bilirubin and aspartate aminotransferase [AST]) relevant to the classification of hepatic impairment according to NCI-ODWG were explored by a linear regression approach.

Q: What does the source list for `CNCc1ccc(-c2[nH]c3cc(F)cc4c3c2CCNC4=O)cc1` [rucaparib]?
A: AUC(0-inf) [1]: 48.3 µg·h/mL; AUC(0-inf) [2]: 20.6 µg·h/mL; AUC(0-inf) [3]: 18.1 µg·h/mL; AUC(0-t) [4]: 8.91 µg·h/mL; AUC(0-t) [5]: 22.5 µg·h/mL; AUC(0-t) [6]: 23.9 µg·h/mL; AUC(0-t) [7]: 17.5 µg·h/mL; AUC(0-t) [8]: 13.1 µg·h/mL; AUC(0-t) [9]: 11.6 µg·h/mL; AUC(0-t) [10]: 24.1 µg·h/mL; AUC(0-t) [11]: 42.2 µg·h/mL; AUC(0-t) [12]: 25.5 µg·h/mL; AUC(0-t) [13]: 16.2 µg·h/mL; AUC(0-t) [14]: 8.58 µg·h/mL; AUC(0-t) [15]: 18.4 µg·h/mL; AUC(0-t) [1]: 42.2 µg·h/mL; AUC(0-t) [2]: 17.8 µg·h/mL; AUC(0-t) [3]: 17.7 µg·h/mL; Cmax [4]: 0.55 µg/mL; Cmax [5]: 0.657 µg/mL; Cmax [6]: 0.692 µg/mL; Cmax [7]: 0.583 µg/mL; Cmax [9]: 0.604 µg/mL; Cmax [10]: 0.694 µg/mL; Cmax [11]: 0.827 µg/mL; Cmax [12]: 0.658 µg/mL; Cmax [13]: 0.685 µg/mL; Cmax [14]: 0.59 µg/mL; Cmax [15]: 0.762 µg/mL; Cmax [1]: 0.827 µg/mL; Cmax [2]: 0.471 µg/mL; Cmax [3]: 0.665 µg/mL; Vd/F [4]: 2320 L; Vd/F [5]: 1460 L; Vd/F [6]: 1530 L; Vd/F [7]: 1960 L; Vd/F [8]: 1650 L; Vd/F [9]: 3340 L; Vd/F [10]: 1660 L; Vd/F [11]: 2700 L; Vd/F [12]: 2840 L; Vd/F [13]: 2220 L; Vd/F [14]: 2130 L; Vd/F [15]: 1280 L; Vd/F [1]: 2700 L; Vd/F [2]: 2190 L; Vd/F [3]: 1270 L; half-life (t1/2, GM, Child–Pugh mild hepatic impairment): 25.2 h; half-life (t1/2, GM, Child–Pugh moderate hepatic impairment): 42.6 h; half-life (t1/2, GM, Child–Pugh severe hepatic impairment): 47.8 h; half-life (t1/2, GM, NCI-ODWG moderate hepatic impairment): 45 h; half-life (t1/2, GM, NCI-ODWG normal hepatic function): 26.1 h; half-life (t1/2, Mean (SD), Child–Pugh mild hepatic impairment): 27.5 h; half-life (t1/2, Mean (SD), Child–Pugh moderate hepatic impairment): 44.8 h; half-life (t1/2, Mean (SD), Child–Pugh severe hepatic impairment): 47.8 h; half-life (t1/2, Mean (SD), NCI-ODWG moderate hepatic impairment): 46.7 h; half-life (t1/2, Mean (SD), NCI-ODWG normal hepatic function): 28.5 h; half-life (t1/2, Median (min–max), Child–Pugh mild hepatic impairment): 26.6 h; half-life (t1/2, Median (min–max), Child–Pugh moderate hepatic impairment): 49.9 h; half-life (t1/2, Median (min–max), Child–Pugh severe hepatic impairment): 47.8 h; half-life (t1/2, Median (min–max), NCI-ODWG moderate hepatic impairment): 49.3 h; half-life (t1/2, Median (min–max), NCI-ODWG normal hepatic function): 26.3 h; Tmax [14]: 3.98 h; Tmax [15]: 3.95 h; Tmax [1]: 4.49 h; Tmax [2]: 3.96 h; Tmax [3]: 3.97 h; Slope estimate (90% CI), AUC0-inf vs AST [16]: 0.001 (–0.002 to 0.004); Slope estimate (90% CI), AUC0-inf vs Bilirubin [16]: 0.003 (–0.014 to 0.020); Slope estimate (90% CI), AUC0-last vs AST [16]: 0.001 (–0.002 to 0.004); Slope estimate (90% CI), AUC0-last vs Bilirubin [16]: 0.002 (–0.015 to 0.019); Slope estimate (90% CI), Cmax vs AST [16]: 0 (–0.002 to 0.001); Slope estimate (90% CI), Cmax vs Bilirubin [16]: –0.002 (–0.011 to 0.007)
